In patent publication US20250250227A1, “AMINO LIPID COMPOUND, PREPARATION METHOD THEREFOR, COMPOSITION THEREOF AND USE THEREOF” (SHENZHEN SHENXIN BIOTECHNOLOGY CO., LTD., priority 2022, published 2025):

Key:
[1] = Preparation and characterisation of mRNA-encapsulating lipid nanoparticle (encapsulation efficiency, particle size); type: physicochemical; settings: LNP encapsulating Fluc mRNA; Lipid:DSPC:CHO-HP:M-DMG-2000 48:10:40.5:1.5
Experimental: A specified amount of Fluc mRNA stock solution, 0.2 M sodium acetate buffer, and DEPC water were added to a container, and mixed well to obtain a water phase;
The amino lipid compound of the present disclosure, a helper lipid, a structural lipid, and a PEG-lipid were separately dissolved in absolute ethanol to prepare respective solutions at concentrations of 20 mg/mL, 10 mg/mL, 20 mg/mL, and 25 mg/mL, respectively. The above four solutions were pipetted at a molar ratio of Lipid:DSPC:CHO—HP:M-DMG-2000 of 48:10:40.5:1.5, and mixed well to prepare an alcohol phase. • (2) Encapsulation: The water phase and the alcohol phase were injected into a microfluidic chip at a flow rate of water phase: alcohol phase=12 mL/min: 4 mL/min by using a microfluidic preparation instrument (MPE-L2), and encapsulation was carried out at a flow rate of water phase: alcohol phase=9 mL/min: 3 mL/min to obtain mRNA-encapsulating lipid nanoparticle (mRNA-LNP). • (3) Dialysis: The product of step (2) was loaded in a dialysis bag and placed in a Tris Buffer-8% sucrose solution for replacement to remove ingredients such as residual ethanol, unassembled lipids. Dialysis was conducted for 2 h with magnetic stirring at room temperature and under protection from light (dialysate was replaced every 1 hour). • (4) The product of step (3) was sterilized by passing through a […] microporous membrane, and then packaged.
Lipid nanoparticle formulations encapsulating Fluc mRNA were prepared, with a concentration of Fluc mRNA of 0.2 g/L, a mass ratio of Fluc mRNA to Lipid of 1:10, a particle size of 80-130 nm, and a encapsulation efficiency of 85% or higher.
The encapsulation efficiency of the lipid nanoparticle encapsulating luciferase mRNA (Fluc mRNA) with a representative amino lipid compound and the fluorescence expression intensity induced by the same are shown in Table 4, with the amino lipid compound 118 as a control. […]

Female BALB/c mice = experiment: Performance evaluation of in vivo delivery of Fluc mRNA lipid nanoparticle (IVIS, body and organs); settings: Fluc mRNA LNP; for Liver (fluorescence expression intensity) / Spleen (fluorescence expression intensity): 75 μL IV; for Liver (fluorescence expression intensity) / Spleen (fluorescence expression intensity) / Total flux (fluorescence expression intensity) / (Spleen/Total Flux) * 100%: 6 hours after injection; for Liver (fluorescence expression intensity) / Spleen (fluorescence expression intensity) / Total flux (fluorescence expression intensity): IVIS; for Total flux (fluorescence expression intensity): 75 μL tail vein injection (IV); for (Spleen/Total Flux) * 100% / Multiple of spleen delivery/total delivery to amino lipid compound 118: IV; for Multiple of spleen delivery/total delivery to amino lipid compound 118: relative to amino lipid compound 118
Experimental: Animal preparation: Female BALB/c mice of 6-8 weeks old were selected and raised in an SPF grade breeding room. Animal testing was conducted in strict accordance with the guidelines of national health institutions and animal ethics requirements.
In vivo Delivery: prior to injection of the test LNP formulations, the LNP formulations were gently and repeatedly inverted to thoroughly mix the formulation samples. A corresponding amount of the formulation samples were aspirated with a 1 ml insulin syringe, and the LNP formulations were injected by tail vein injection (IV), with 3 mice in duplicate per formulation. Each mouse was injected with 75 μL of the luciferase mRNA (Fluc mRNA)-encapsulating lipid nanoparticle formulation prepared in Experimental Example 1.
6 hours after injection of LNP formulations, mice were injected with 200 μL D-Luciferin luciferase developing substrate (Catalog No. 122799; Manufacturer: Perkin Elmer). After the substrate was injected, the mice were anesthetized with isoflurane inhalation, and the injection time of luciferase developing substrate was recorded.
The encapsulation efficiency of the lipid nanoparticle encapsulating luciferase mRNA (Fluc mRNA) with a representative amino lipid compound and the fluorescence expression intensity induced by the same are shown in Table 4, with the amino lipid compound 118 as a control.
The multiple of spleen delivery/total delivery of fluorescence expression intensity induced by lipid nanoparticle encapsulating luciferase mRNA (Fluc mRNA) with a representative amino lipid compound to amino lipid compound 118 is shown in Table 5.

Structure (SMILES) | Encapsulation efficiency [1] | Liver (fluorescence expression intensity) (Female BALB/c mice) | Spleen (fluorescence expression intensity) (Female BALB/c mice) | Total flux (fluorescence expression intensity) (Female BALB/c mice) | (Spleen/Total Flux) * 100% (Female BALB/c mice) | Multiple of spleen delivery/total delivery to amino lipid compound 118 (Female BALB/c mice)
CCCCCCC(CCCCCC)OC(=O)CCCCCCCCC(CCCCCCCCC(=O)OC(CCCCCC)CCCCCC)OC(=O)N(CCCCCC(=O)OCC)CCCCN1CCCC1 [Compound 366] | 93.63% | 8.92E+07 | 4.11E+06 | 5.82E+08 | 0.71% | 2.08
CCCCCCC(CCCCCC)OC(=O)CCCCCCCCC(CCCCCCCCC(=O)OC(CCCCCC)CCCCCC)OC(=O)N(CCCN(C)C)CCC(=O)OC(C)CCCCC (stereo not drawn) [Compound 322] | 90.32% | 9.73E+07 | 6.56E+06 | 7.90E+08 | 0.83% | 2.44
CCCCCCC(CCCCCC)OC(=O)CCCCCCCCC(CCCCCCCCC(=O)OC(CCCCCC)CCCCCC)OC(=O)N(CCCCCC(=O)OC(C)CC)CCCN(C)C (stereo not drawn) [Compound 298] | 92.85% | 3.32E+07 | 2.13E+06 | 2.61E+08 | 0.82% | 2.40
CCCCCCC(CCCCCC)OC(=O)CCCCCCCCC(CCCCCCCCC(=O)OC(CCCCCC)CCCCCC)OC(=O)N(CCCCCC)CCCN(C)C [Compound 109] | 92.87% | 5.22E+07 | 8.53E+05 | 2.80E+08 | 0.30% | 0.90
CCCCCCC(CCCCCC)OC(=O)CCCCCCCCC(CCCCCCCCC(=O)OC(CCCCCC)CCCCCC)OC(=O)N(CCCN(C)C)CCC(=O)OC(C)CCCC (stereo not drawn) [Compound 320] | 92.13% | 1.13E+08 | 4.97E+06 | 7.04E+08 | 0.71% | 2.08
CCCCCCC(CCCCCC)OC(=O)CCCCCCCCC(CCCCCCCCC(=O)OC(CCCCCC)CCCCCC)OC(=O)N(CCCN1CCCC1)CC(=O)OCC [Compound 367] | 91.21% | 1.06E+07 | 4.33E+05 | 9.45E+07 | 0.46% | 1.35
CCCCCCC(CCCCCC)OC(=O)CCCCCCCCC(CCCCCCCCC(=O)OC(CCCCCC)CCCCCC)OC(=O)N(CCCC(=O)OC(C)CC)CCCN(C)C (stereo not drawn) [Compound 308] | 93.71% | 9.58E+07 | 4.93E+06 | 6.29E+08 | 0.78% | 2.31
CCCCCCC(CCCCCC)OC(=O)CCCCCCCCC(CCCCCCCCC(=O)OC(CCCCCC)CCCCCC)OC(=O)N(CCCCC(=O)OC(CC)CCC)CCCN(C)C (stereo not drawn) [Compound 306] | 91.92% | 4.13E+07 | 5.44E+06 | 2.45E+08 | 2.22% | 6.53
CCC/C=C\COC(=O)CCCN(CCCN(C)C)C(=O)OC(CCCCCCCCC(=O)OC(CCCCCC)CCCCCC)CCCCCCCCC(=O)OC(CCCCCC)CCCCCC [Compound 276] | 88.92% | 1.43E+08 | 4.67E+06 | 7.70E+08 | 0.61% | 1.78
CCCCCCC(CCCCCC)OC(=O)CCCCCCCCC(CCCCCCCCC(=O)OC(CCCCCC)CCCCCC)OC(=O)N(CCCN(C)C)CCC(=O)OC(CC)CCC (stereo not drawn) [Compound 321] | 93.85% | 1.27E+08 | 1.47E+07 | 7.21E+08 | 2.04% | 6.00
CCCCCCOC(=O)CCN(CCCN(C)C)C(=O)OC(CCCCCCCCC(=O)OCC(CCCC)CCCCCC)CCCCCCCCC(=O)OCC(CCCC)CCCCCC (stereo not drawn) [Compound 372] | 92.17% | 1.67E+08 | 8.59E+06 | 5.43E+08 | 1.58% | 4.65
CCCCCCC(CCCCCC)OC(=O)CCCCCCCCC(CCCCCCCCC(=O)OC(CCCCCC)CCCCCC)OC(=O)N(CCCCN1CCCC1)CC(=O)OCC [Compound 368] | 87.51% | 6.14E+07 | 1.25E+07 | 3.97E+08 | 3.15% | 9.26
CCCCCCC(CCCCCC)OC(=O)CCCCCCCCC(CCCCCCCCC(=O)OC(CCCCCC)CCCCCC)OC(=O)N(CCCCC(=O)OC(C)CCC)CCCN(C)C (stereo not drawn) [Compound 303] | 93.23% | 8.58E+07 | 5.56E+06 | 6.41E+08 | 0.87% | 2.55
CCCC/C=C\CCOC(=O)CCCN(CCCN(C)C)C(=O)OC(CCCCCCCCC(=O)OC(CCCCCC)CCCCCC)CCCCCCCCC(=O)OC(CCCCCC)CCCCCC [Compound 279] | 92.43% | 9.55E+07 | 4.57E+06 | 6.29E+08 | 0.73% | 2.14
CCCCCCCOC(=O)CCN(CCCN(C)C)C(=O)OC(CCCCCCCCC(=O)OCC(CCCC)CCCCCC)CCCCCCCCC(=O)OCC(CCCC)CCCCCC (stereo not drawn) [Compound 373] | 92.01% | 9.15E+07 | 6.93E+06 | 4.77E+08 | 1.45% | 4.27
CCCCCCC(C)OC(=O)CN(CCCN(C)C)C(=O)OC(CCCCCCCCC(=O)OC(CCCCCC)CCCCCC)CCCCCCCCC(=O)OC(CCCCCC)CCCCCC (stereo not drawn) [Compound 337] | 92.38% | 6.49E+07 | 3.30E+06 | 3.58E+08 | 0.92% | 2.71
CCCCCCC(CCCC)COC(=O)CCCCCCCCC(CCCCCCCCC(=O)OCC(CCCC)CCCCCC)OC(=O)N(CCCC(=O)OCCCCC)CCCN(C)C (stereo not drawn) [Compound 371] | 93.17% | 2.92E+08 | 2.36E+07 | 1.12E+09 | 2.11% | 6.20
